In patent US5783597A, “2,5-disubstituted thiophenes: inhibitors of 5-lipoxygenase and inducible cyclooxygenase (COX-2) enzymes, composition and use” (Ortho Pharmaceutical Corporation, priority 1997, dated 1998):

Key:
5-lipoxygenase (5-LO) [1] = molecular target: T1, 5-lipoxygenase (5-LO) (Rattus norvegicus, UniProt P12527); test: RBL-1 cell 5-lipoxygenase and cyclooxygenase - Whole cells (Procedure II); format: cell-based
T1 construct: endogenous in cells; host or cells: intact RBL-1 (rat basophilic leukemia) cells, stimulated with calcium ionophore A23187
T1 sequence (P12527 1-673): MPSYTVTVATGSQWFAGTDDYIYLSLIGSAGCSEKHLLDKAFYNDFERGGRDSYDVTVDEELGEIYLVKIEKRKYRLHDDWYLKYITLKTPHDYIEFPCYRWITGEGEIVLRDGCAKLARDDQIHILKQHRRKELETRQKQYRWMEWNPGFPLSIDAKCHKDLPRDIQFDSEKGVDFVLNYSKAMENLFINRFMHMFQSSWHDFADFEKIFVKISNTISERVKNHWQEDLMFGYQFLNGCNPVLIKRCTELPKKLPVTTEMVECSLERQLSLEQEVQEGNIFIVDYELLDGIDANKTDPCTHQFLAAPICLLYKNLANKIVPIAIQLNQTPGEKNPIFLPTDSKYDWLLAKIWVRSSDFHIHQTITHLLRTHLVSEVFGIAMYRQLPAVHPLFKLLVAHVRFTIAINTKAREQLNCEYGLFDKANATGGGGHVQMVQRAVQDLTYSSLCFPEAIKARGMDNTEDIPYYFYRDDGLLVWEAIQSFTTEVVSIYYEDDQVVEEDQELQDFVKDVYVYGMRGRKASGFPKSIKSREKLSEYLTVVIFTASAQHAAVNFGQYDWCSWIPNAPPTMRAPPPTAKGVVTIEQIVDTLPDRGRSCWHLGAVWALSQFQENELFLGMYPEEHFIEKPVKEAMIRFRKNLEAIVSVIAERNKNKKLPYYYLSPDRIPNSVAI
Method: RBL-1 Cell 5-Lipoxygenase and cyclooxygenase - Whole cells
The ability to inhibit 5-LO and CO in intact RBL-1 cells was also evaluated. […] Cells were collected by centrifugation, washed once in HBSS, and resuspended at a concentration of 1×10^5 cells/mL. Cells were incubated in the presence of vehicle or drug then centrifuged at 800×g for 10 minutes at 4° C. The supernatant was removed by aspiration and the cells were resuspended in 0.5 mL of HBSS. […] The conversion of M to 5-LO products was initiated by the addition of 10 μL (50 uCi) of 1-^14 C-AA. Products were isolated by acidification and extraction, followed by thin layer chromatography analysis as described above. Radioactive areas corresponding to authentic 5-LO (5-HETE) and CO (PGD2) products were quantitated by the Bioscan 2000 Imaging System.

[2] = molecular target: T2, Human Prostaglandin H2 Synthase Typ II (Cox-2) (Homo sapiens, UniProt P35354); test: Human Prostaglandin H2 Synthase Typ II (Cox-2) Whole Cell Assay, ECV-304 cells (Procedure III); format: cell-based; details: ECV-304 whole cells; for inhibition at 10 µM: read-out: Procedure III (COX-2) Wh Cell, percent inhibition of PGE2 produced; for IC50: PGE2 produced, read-out: Procedure III (COX-2) Wh Cell IC50
T2 construct: endogenous in cells; host or cells: ECV-304 cells treated with PMA and ionomycin for 16 hours
T2 sequence (P35354 18-604): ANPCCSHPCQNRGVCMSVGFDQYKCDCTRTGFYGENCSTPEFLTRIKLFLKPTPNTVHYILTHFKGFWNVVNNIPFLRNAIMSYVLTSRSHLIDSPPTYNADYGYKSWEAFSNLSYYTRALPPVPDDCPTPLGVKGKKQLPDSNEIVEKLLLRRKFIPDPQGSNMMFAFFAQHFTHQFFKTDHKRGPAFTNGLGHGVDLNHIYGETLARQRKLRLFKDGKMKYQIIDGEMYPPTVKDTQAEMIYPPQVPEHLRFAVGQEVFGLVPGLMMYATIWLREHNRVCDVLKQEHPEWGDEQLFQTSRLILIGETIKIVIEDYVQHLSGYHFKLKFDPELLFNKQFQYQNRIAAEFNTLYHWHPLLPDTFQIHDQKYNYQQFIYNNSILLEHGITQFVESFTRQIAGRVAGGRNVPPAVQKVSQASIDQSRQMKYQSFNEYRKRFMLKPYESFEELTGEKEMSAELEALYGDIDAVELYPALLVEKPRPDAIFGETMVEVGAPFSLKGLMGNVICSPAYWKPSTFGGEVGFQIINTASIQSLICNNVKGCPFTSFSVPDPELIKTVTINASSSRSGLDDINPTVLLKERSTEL
Method: Human Prostaglandin H2 Synthase Typ II (Cox-2) Whole Cell Assay (Multiple Concentrations)
ECV-304 (human, endothelial, umbilical cord) cells are maintained in culture in a suitable medium, and are trypsinized and plated at a density of 1×10^6 cells per well of a 6 well plate prior to assay. Approximately 28 hours later, 50 μg/ml PMA and […] ionomycin (both final concentrations) are added to each well and incubated for an additional 16 hours. Vehicle or test compounds are incubated with the cells for five minutes prior to initiation of Cox-2 enzyme activity by the addition of 30 μM arachidonic acid. Ten minutes later, an aliquot of the supernatant is withdrawn and the amount of PGE2 present quantitated by radioimmunoassay. Activity, reported as percent inhibition of PGE2 produced, is calculated as follows: […]

5-lipoxygenase (5-LO) [3] = molecular target: T1, 5-lipoxygenase (5-LO); test: RBL-1 cell 5-lipoxygenase and cyclooxygenase - Homogenate (Procedure I); format: biochemical
Method: RBL-1 cell 5-lipoxygenase and cyclooxugenase - Homogenate
Rat basophilic leukemia cells (RBL-1; 5×10^7 viable cells/mL) were disrupted by homogenization on ice (four 20 sec bursts) with a Brinkman polytron. […] The homogenate was then centrifuged at 9,220×g for 48 minutes at 4° C. The pellet was discarded and the supernatant was saved as the source of enzymes. The supernatant was pre-incubated for five minutes at 37° C. in the presence of 2 mM of CaCl2 and compound or vehicle (1% DMSO). The conversion of AA into products by CO and LO was initiated by adding 10 μL (50 μCi) of 1-^14 C-AA to each tube and incubated at 37° C. for 20 minutes. The reaction was stopped by adjusting the pH of each sample to 3 to 3.5 with 2M formic acid. Samples were extracted with three volumes of chloroform to isolate the products of 5-LO formed during the reaction. Fractions were dried under nitrogen, then resuspended in 40 μL of chloroform and spotted onto silica gel HL plates. The plates were developed in A-9 solvent. The dried plates were analyzed using a Bioscan Imaging TLC scanner to determine the percentage of radiolabelled M converted to 5-HETE (LO product) and PGD2 (CO product) in each sample.

[4] = intact RBL-1 cells, 5-HETE, read-out: Procedure II (5-LO) Wh Cell IC50
[5] = RBL-1 homogenate supernatant, 5-HETE, read-out: Procedure I (5-LO) Homog. IC50

Compound | IC50 (5-lipoxygenase (5-LO) [1]; [4]) | inhibition at 10 µM [2] | IC50 (5-lipoxygenase (5-LO) [3]; [5]) | IC50 [2] | IC50 (5-lipoxygenase (5-LO) [1]) | IC50 (5-lipoxygenase (5-LO) [3])
CS(=O)(=O)Nc1ccc(-c2ccccc2)s1 [Example 33, N-5-[phenyl-thien-2-yl]methanesulfonamide] | 790 nM | 31% | 110 nM | – | – | –
CCCCCCCCS(=O)(=O)Nc1ccc(Oc2ccccc2)s1 [Example 26] | 2900 nM | 8% | 300 nM | – | – | –
CS(=O)(=O)Nc1ccc(Oc2cc(C(F)(F)F)cc(C(F)(F)F)c2)s1 [Example 18] | 6500 nM | 8% | 310 nM | – | – | –
CS(=O)(=O)Nc1ccc(Oc2cc(C(F)(F)F)ccc2Cl)s1 [Example 19] | – | 29% | – | – | 1800 nM | 140 nM
CS(=O)(=O)Nc1ccc(-c2ccc(F)cc2)s1 [Example 32, N-5-[(4-fluoro)phenyl-thien-2-yl]methanesulfonamide] | 2100 nM | 3% | 150 nM | – | – | –
CCCCS(=O)(=O)Nc1ccc(Oc2ccccc2)s1 [Example 24] | 1120 nM | – | 360 nM | 10000 nM | – | –
CS(=O)(=O)Nc1ccc(Oc2cccc(C(F)(F)F)c2)s1 [Example 10] | 780 nM | – | 60 nM | 1020 nM | – | –
CC(C)S(=O)(=O)Nc1ccc(Oc2ccccc2)s1 [Example 25] | 1040 nM | 16% | 50 nM | – | – | –
O=S(=O)(Nc1ccc(Oc2ccccc2)s1)c1ccccc1 [Example 27] | 900 nM | 44% | 100 nM | – | – | –
CS(=O)(=O)Nc1ccc(SC2CCCCC2)s1 [Example 29] | 2390 nM | – | 70 nM | 9100 nM | – | –
CS(=O)(=O)Nc1ccc(Sc2ccccc2)s1 [Example 28] | 700 nM | 33% | 190 nM | – | – | –
CS(=O)(=O)Nc1ccc(Cc2ccccc2)s1 [Example 31, N-(5-Benzylthien-2-yl)methanesulfonamide] | 380 nM | 45% | 110 nM | – | – | –
CS(=O)(=O)Nc1ccc(Oc2ccc(S(C)(=O)=O)cc2)s1 [Example 5] | 38500 nM | 0% | 1800 nM | – | – | –
CS(=O)(=O)Nc1ccc(Oc2ccc3ccccc3c2)s1 [Example 22] | 770 nM | – | 60 nM | 10000 nM | – | –
CCCCCSc1ccc(NS(C)(=O)=O)s1 [Example 30] | 630 nM | – | 40 nM | 2760 nM | – | –

Now from value to molecule, other results behind:

IC50 (5-lipoxygenase (5-LO) [1]; [4]) | inhibition at 10 µM [2] | IC50 (5-lipoxygenase (5-LO) [3]; [5]) | IC50 [2] | Compound | IC50 (5-lipoxygenase (5-LO) [1]) | IC50 (5-lipoxygenase (5-LO) [3])
1400 nM | – | 60 nM | 5290 nM | CS(=O)(=O)Nc1ccc(Oc2ccc(F)cc2Br)s1 [Example 17] | – | –
660 nM | 39% | 100 nM | – | CSc1ccc(Oc2ccc(NS(C)(=O)=O)s2)cc1 [Example 4] | – | –
310 nM | – | 20 nM | 1180 nM | Cc1cc(Oc2ccc(NS(C)(=O)=O)s2)ccc1F [Example 11] | – | –
310 nM | – | 120 nM | 1690 nM | Cc1cccc(Oc2ccc(NS(C)(=O)=O)s2)c1 [Example 15] | – | –
890 nM | – | 30 nM | 5300 nM | CS(=O)(=O)Nc1ccc(Oc2ccc(F)c(Cl)c2)s1 [Example 6] | – | –
800 nM | – | 70 nM | 3000 nM | CS(=O)(=O)Nc1ccc(Oc2cccc3ccccc23)s1 [Example 21] | – | –
4700 nM | 36% | 610 nM | – | CC(C)c1cccc(Oc2ccc(NS(C)(=O)=O)s2)c1 [Example 20] | – | –
500 nM | – | 60 nM | 10300 nM | CS(=O)(=O)Nc1ccc(Oc2cccc(Cl)c2)s1 [Example 8] | – | –
490 nM | 13% | 160 nM | – | CS(=O)(=O)Nc1ccc(Oc2cccc(F)c2)s1 [Example 3] | – | –
470 nM | – | 70 nM | 4220 nM | CS(=O)(=O)Nc1ccc(Oc2ccccc2)s1 [Example 2] | – | –
– | – | – | 10000 nM | CS(=O)(=O)Nc1ccc(Oc2cccc3c2CCCC3)s1 [Example 23] | – | –
660 nM | – | 75 nM | 18000 nM | CS(=O)(=O)Nc1ccc(Oc2ccc(Cl)cc2)s1 [Example 12] | – | –
650 nM | – | 90 nM | 5800 nM | CS(=O)(=O)Nc1ccc(Oc2ccc(Cl)cc2Cl)s1 [Example 13] | – | –
730 nM | – | 150 nM | 1970 nM | CS(=O)(=O)Nc1ccc(Oc2ccc(F)cc2F)s1 [Example 14] | – | –
1090 nM | – | 90 nM | 1900 nM | Cc1cc(F)ccc1Oc1ccc(NS(C)(=O)=O)s1 [Example 16] | – | –
660 nM | 54% | 60 nM | – | Cc1cccc(Oc2ccc(NS(C)(=O)=O)s2)c1C [Example 9] | – | –
1450 nM | 0% | 20 nM | – | COc1ccc(Oc2ccc(NS(C)(=O)=O)s2)cc1 [Example 7] | – | –
